Data as given in PubChem BioAssay (NCI).
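Method: 48-hour compound exposure of cells in 96-well plates, five concentrations, linear interpolation of endpoints. Definition used: TGI = concentration required for complete inhibition of growth.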

Key:
Assay in all cases: NCI anticancer screen, dose series, 48 h
[1] = test system: KM12 colon
[2] = test system: LOX IMVI melanoma
[3] = test system: SNB-75 CNS
[4] = test system: SK-OV-3 ovarian
[5] = test system: SK-MEL-2 melanoma
[6] = test system: HCT-116 colon
[7] = test system: UACC-62 melanoma
[8] = test system: IGROV1 ovarian
[9] = test system: DMS 114 small cell lung
[10] = test system: SF-539 CNS
[11] = test system: UO-31 renal
[12] = test system: OVCAR-5 ovarian
[13] = test system: NCI-H226 lung
[14] = test system: RPMI-8226 leukemia
[15] = test system: SW-620 colon
[16] = test system: NCI-H23 lung
[17] = test system: SK-MEL-28 melanoma
[18] = test system: MOLT-4 leukemia
[19] = test system: XF 498 CNS
[20] = test system: UACC-257 melanoma
[21] = test system: HCT-15 colon
[22] = test system: NCI-H460 lung
[23] = test system: RXF 393 renal
[24] = test system: SK-MEL-5 melanoma
[25] = test system: HL-60(TB) leukemia
[26] = test system: HOP-62 NSCLC
[27] = test system: ACHN renal
[28] = test system: DLD-1 colon
[29] = test system: SNB-19 CNS
[30] = test system: M14 melanoma
[31] = test system: COLO 205 colon
[32] = test system: LXFL 529 NSCLC
[33] = test system: TK-10 renal
[34] = test system: CAKI-1 renal
[35] = test system: M19-MEL melanoma
[36] = test system: K-562 leukemia
[37] = test system: MALME-3M melanoma
[38] = test system: U251 CNS
[39] = test system: CCRF-CEM leukemia
[40] = test system: SF-268 CNS
[41] = test system: NCI-H522 lung
[42] = test system: HCC-2998 colon
[43] = test system: OVCAR-3 ovarian
[44] = test system: KM20L2 colon
[45] = test system: SR leukemia
[46] = test system: SN12C renal
[47] = test system: DMS 273 small cell lung
[48] = test system: HOP-92 NSCLC
[49] = test system: A549 NSCLC
[50] = test system: OVCAR-8 ovarian
[51] = test system: 786-0 renal
[52] = test system: HT29 colon
[53] = test system: EKVX NSCLC
[54] = test system: MDA-MB-231 breast
[55] = test system: DU-145 prostate
[56] = test system: NCI/ADR-RES ovarian
[57] = test system: MDA-N
[58] = test system: RXF-631 renal
[59] = test system: OVCAR-4 ovarian
[60] = test system: MCF7 breast
[61] = test system: PC-3 prostate
[62] = test system: T-47D breast
[63] = test system: SNB-78 CNS
[64] = test system: MDA-MB-435
[65] = test system: A498 renal
[66] = test system: BT-549 breast
[67] = test system: SF-295 CNS
[68] = test system: HS 578T breast

## Cn1c(=O)c2c(nc(C[N+]3([O-])CCOCC3)n2C)n(C)c1=O
[1]
  TGI: > 100 µM
[2]
  TGI: > 100 µM
[3]
  TGI: > 100 µM
[4]
  TGI: > 100 µM
[5]
  TGI: > 100 µM
[6]
  TGI: > 100 µM
[7]
  TGI: > 100 µM
[8]
  TGI: > 100 µM
[9]
  TGI: > 100 µM
[10]
  TGI: > 100 µM
[11]
  TGI: > 100 µM
[12]
  TGI: > 100 µM
[13]
  TGI: > 100 µM
[14]
  TGI: > 100 µM
[15]
  TGI: > 100 µM
[16]
  TGI: > 100 µM
[17]
  TGI: > 100 µM
[18]
  TGI: > 100 µM
[19]
  TGI: > 100 µM
[20]
  TGI: > 100 µM
[21]
  TGI: > 100 µM
[22]
  TGI: > 100 µM
[23]
  TGI: > 100 µM
[24]
  TGI: > 100 µM
[25]
  TGI: > 100 µM
[26]
  TGI: > 100 µM
[27]
  TGI: > 100 µM
[28]
  TGI: > 100 µM
[29]
  TGI: > 100 µM
[30]
  TGI: > 100 µM
[31]
  TGI: > 100 µM
[32]
  TGI: > 100 µM
[33]
  TGI: > 100 µM
[34]
  TGI: > 100 µM
[35]
  TGI: > 100 µM
[36]
  TGI: > 100 µM
[37]
  TGI: > 100 µM
[38]
  TGI: > 100 µM
[39]
  TGI: > 100 µM
[40]
  TGI: > 100 µM
[41]
  TGI: > 100 µM
[42]
  TGI: > 100 µM
[43]
  TGI: > 100 µM
[44]
  TGI: > 100 µM
[45]
  TGI: > 100 µM
[46]
  TGI: > 100 µM
[47]
  TGI: > 100 µM
[48]
  TGI: > 100 µM
[49]
  TGI: > 100 µM
[50]
  TGI: > 100 µM
[51]
  TGI: > 100 µM
[52]
  TGI: > 100 µM
[53]
  TGI: > 100 µM

## CC(C)(C)C1CCC2(CC1)CCN(CCCN1CCOCC1)CC2
[1]
  TGI: > 100 µM
[2]
  TGI: > 52.3 µM
[3]
  TGI: > 52.4 µM
[54]
  TGI: > 100 µM
[55]
  TGI: > 100 µM
[4]
  TGI: > 100 µM
[5]
  TGI: 53.2 µM
[6]
  TGI: > 59.7 µM
[7]
  TGI: 25 µM
[56]
  TGI: > 100 µM
[8]
  TGI: > 100 µM
[9]
  TGI: 33.9 µM
[10]
  TGI: > 51.1 µM
[11]
  TGI: > 100 µM
[12]
  TGI: > 100 µM
[57]
  TGI: 89.9 µM
[13]
  TGI: > 100 µM
[58]
  TGI: 31 µM
[14]
  TGI: 63.8 µM
[59]
  TGI: > 100 µM
[15]
  TGI: > 59.3 µM
[16]
  TGI: > 100 µM
[17]
  TGI: 33.2 µM
[18]
  TGI: > 65.4 µM
[60]
  TGI: > 100 µM
[61]
  TGI: > 100 µM
[20]
  TGI: 31.1 µM
[21]
  TGI: > 57.9 µM
[22]
  TGI: > 100 µM
[23]
  TGI: > 82.3 µM
[24]
  TGI: 21.4 µM
[25]
  TGI: 41.8 µM
[26]
  TGI: > 57.8 µM
[27]
  TGI: > 100 µM
[28]
  TGI: > 100 µM
[29]
  TGI: > 100 µM
[62]
  TGI: > 100 µM
[30]
  TGI: 27.8 µM
[31]
  TGI: 32.7 µM
[32]
  TGI: 21.5 µM
[33]
  TGI: > 100 µM
[34]
  TGI: > 88 µM
[35]
  TGI: 25.9 µM
[36]
  TGI: 30.5 µM
[37]
  TGI: 39.4 µM
[63]
  TGI: 91.9 µM
[38]
  TGI: > 53.3 µM
[39]
  TGI: > 100 µM
[40]
  TGI: > 100 µM
[41]
  TGI: > 71.3 µM
[42]
  TGI: 35.4 µM
[43]
  TGI: > 100 µM
[44]
  TGI: 5.24 µM
[45]
  TGI: > 100 µM
[64]
  TGI: > 100 µM
[65]
  TGI: > 57.4 µM
[66]
  TGI: > 100 µM
[46]
  TGI: > 100 µM
[47]
  TGI: 38.3 µM
[67]
  TGI: > 61.7 µM
[48]
  TGI: > 63.9 µM
[49]
  TGI: > 88.8 µM
[50]
  TGI: > 100 µM
[51]
  TGI: 51 µM
[68]
  TGI: > 100 µM
[52]
  TGI: > 34.2 µM
[53]
  TGI: > 100 µM
